# Laboratory results as given in patent US8252826B2, “Cyclopentyl- and cycloheptylpyrazoles” (Hoffmann-La Roche Inc., priority 2010, dated 2012).
# Molecular target: T1, FXR ligand binding domain (Homo sapiens, UniProt Q96RI1)
# T1 sequence (Q96RI1 211-483 limits assumed): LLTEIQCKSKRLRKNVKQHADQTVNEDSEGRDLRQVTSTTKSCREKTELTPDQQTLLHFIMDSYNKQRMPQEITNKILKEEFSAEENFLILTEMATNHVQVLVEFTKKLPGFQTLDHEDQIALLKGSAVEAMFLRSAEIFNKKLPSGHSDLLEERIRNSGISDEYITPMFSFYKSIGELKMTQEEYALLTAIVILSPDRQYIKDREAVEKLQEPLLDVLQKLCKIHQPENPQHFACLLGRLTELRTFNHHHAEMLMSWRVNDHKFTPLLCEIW
# Assay: Radioligand binding assay (scintillation proximity radioligand displacement)
# Method: Radioligand Binding Assay
# Binding of test substances to the FXR ligand binding domain was assessed in a radioligand displacement assay. The assay was performed in a buffer consisting of 50 mM Hepes, pH 7.4, 10 mM NaCl, 5 mM MgCl2. […] All binding assays were performed in 96-well plates and the amount of bound ligand was measured on a Packard TopCount using OptiPlates (Packard). Dose response curves were performed within a range of concentration from 6×10^−9 M to 2.5×10^−5 M.
row,IC50 [µM],SMILES
1,28.7,"COC(=O)c1cc(C)c(OCC(c2c3c(nn2-c2ccc(Cl)cc2)CCC3)C2CCCCC2)c(C)c1 (stereo not drawn) [Example 1, 4-{2-[2-(4-Chloro-phenyl)-2,4,5,6-tetrahydro-cyclopentapyrazol-3-yl]-2-cyclohexyl-ethoxy}-3,5-dimethyl-benzoic acid methyl ester]"
2,1.3,"N#Cc1ccc(OCC(c2c3c(nn2-c2ccc(Cl)cc2)CCC3)C2CCCCC2)c(F)c1 (stereo not drawn) [Example 3, 4-{2-[2-(4-Chloro-phenyl)-2,4,5,6-tetrahydro-cyclopentapyrazol-3-yl]-2-cyclohexyl-ethoxy}-3-fluoro-benzonitrile]"
3,3.3,"O=C(NC1CCCCC1)C(c1c2c(nn1-c1ccc(Cl)cc1)CCC2)C1CCCCC1 (stereo not drawn) [Example 4, 2-[2-(4-Chloro-phenyl)-2,4,5,6-tetrahydro-cyclopentapyrazol-3-yl]-2,N-dicyclohexyl-acetamide]"
4,0.092,"Fc1cc(-c2nnn[nH]2)ccc1OCC(c1c2c(nn1-c1ccc(Cl)cc1)CCC2)C1CCCCC1 (stereo not drawn) [Example 5, 2-(4-Chloro-phenyl)-3-{1-cyclohexyl-2-[2-fluoro-4-(2H-tetrazol-5-yl)-phenoxy]-ethyl}-2,4,5,6-tetrahydro-cyclopentapyrazole]"
5,0.603,"O=C(O)c1ccc(NC(=O)C(c2c3c(nn2-c2ccc(Cl)cc2)CCC3)C2CCCCC2)c(F)c1 (stereo not drawn) [Example 6, 4-{2-[2-(4-Chloro-phenyl)-2,4,5,6-tetrahydro-cyclopentapyrazol-3-yl]-2-cyclohexyl-acetylamino}-3-fluoro-benzoic acid]"
6,0.052,"O=C(O)c1ccc(OCC(c2c3c(nn2-c2ccc(Cl)cc2)CCC3)C2CCCCC2)nc1 (stereo not drawn) [Example 7, 6-{2-[2-(4-Chloro-phenyl)-2,4,5,6-tetrahydro-cyclopentapyrazol-3-yl]-2-cyclohexyl-ethoxy}-nicotinic acid]"
7,1.1,"O=C(O)c1ccc(SCC(c2c3c(nn2-c2ccc(Cl)cc2)CCC3)C2CCCCC2)cc1 (stereo not drawn) [Example 8, 4-{2-[2-(4-Chloro-phenyl)-2,4,5,6-tetrahydro-cyclopentapyrazol-3-yl]-2-cyclohexyl-ethylsulfanyl}-benzoic acid]"
8,21.4,"CCOC(=O)C(C)(C)Oc1ccc(NC(=O)C(c2c3c(nn2-c2ccc(Cl)cc2)CCCCC3)C2CCCCC2)c(F)c1 (stereo not drawn) [Example 9, 2-(4-{2-[2-(4-Chloro-phenyl)-2,4,5,6,7,8-hexahydro-cycloheptapyrazol-3-yl]-2-cyclohexyl-acetylamino}-3-fluoro-phenoxy)-2-methyl-propionic acid ethyl ester]"
9,1.3,"CC(C)(Oc1ccc(NC(=O)C(c2c3c(nn2-c2ccc(Cl)cc2)CCCCC3)C2CCCCC2)c(F)c1)C(=O)O (stereo not drawn) [Example 10, 2-(4-{2-[2-(4-Chloro-phenyl)-2,4,5,6,7,8-hexahydro-cycloheptapyrazol-3-yl]-2-cyclohexyl-acetylamino}-3-fluoro-phenoxy)-2-methyl-propionic acid]"
10,2.4,"O=C(NC1CCCCC1)C(c1c2c(nn1-c1ccc(Cl)cc1)CCCCC2)C1CCCCC1 (stereo not drawn) [Example 11, 2-[2-(4-Chloro-phenyl)-2,4,5,6,7,8-hexahydro-cycloheptapyrazol-3-yl]-2,N-dicyclohexyl-acetamide]"
11,7,"COC(=O)c1ccc(NC(=O)C(c2c3c(nn2-c2ccc(Cl)cc2)CCCCC3)C2CCCCC2)c(F)c1 (stereo not drawn) [Example 12, 4-{2-[2-(4-Chloro-phenyl)-2,4,5,6,7,8-hexahydro-cycloheptapyrazol-3-yl]-2-cyclohexyl-acetylamino}-3-fluoro-benzoic acid methyl ester]"
12,1.7,"O=C(O)c1ccc(NC(=O)C(c2c3c(nn2-c2ccc(Cl)cc2)CCCCC3)C2CCCCC2)c(F)c1 (stereo not drawn) [Example 13, 4-{2-[2-(4-Chloro-phenyl)-2,4,5,6,7,8-hexahydro-cycloheptapyrazol-3-yl]-2-cyclohexyl-acetylamino}-3-fluoro-benzoic acid]"
13,21.3,"N#Cc1ccc(OCC(c2c3c(nn2-c2ccc(Cl)cc2)CCCCC3)C2CCCCC2)c(F)c1 (stereo not drawn) [Example 14, 4-{2-[2-(4-Chloro-phenyl)-2,4,5,6,7,8-hexahydro-cycloheptapyrazol-3-yl]-2-cyclohexyl-ethoxy}-3-fluoro-benzonitrile]"
14,0.53,"Cc1cc(C(=O)O)cc(C)c1OCC(c1c2c(nn1-c1ccc(Cl)cc1)CCCCC2)C1CCCCC1 (stereo not drawn) [Example 15, 4-{2-[2-(4-Chloro-phenyl)-2,4,5,6,7,8-hexahydro-cycloheptapyrazol-3-yl]-2-cyclohexyl-ethoxy}-3,5-dimethyl-benzoic acid]"
15,0.155,"Fc1cc(-c2nnn[nH]2)ccc1OCC(c1c2c(nn1-c1ccc(Cl)cc1)CCCCC2)C1CCCCC1 (stereo not drawn) [Example 16, 2-(4-Chloro-phenyl)-3-{1-cyclohexyl-2-[2-fluoro-4-(1H-tetrazol-5-yl)-phenoxy]-ethyl}-2,4,5,6,7,8-hexahydro-cycloheptapyrazole]"
